Where “and” joins values, the source holds several entries; their conditions need not be identical. Equal values may be shown once.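 Protocol summary: plate cells (96-well), add compound at 5 concentrations, incubate 48 h, interpolate endpoints linearly. GI50 is the concentration that inhibits growth by half.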 Calls of active or inactive are those of the source. Rule as the data show it: active = GI50 up to about 1.1 µM and inactive = higher. Where a SMILES comes first, the peptide text is derived from it. [ ]: non-standard residue; d: D form. The star is where a group is joined. ξ: configuration not given here. ξD = NC(CC(=O)O)C(=O)O; Boc = CC(C)(C)OC(=O)*; Aib = CC(C)(N)C(=O)O; OtBu = CC(C)(C)O*
Tests used:
Assay in all cases: NCI tumour cell line growth inhibition, 48 h
A498 = test system: A498
BT-549 = test system: BT-549
IGROV-1 = test system: IGROV-1
NCI-H226 = test system: NCI-H226
MOLT-4 = test system: MOLT-4
786-0 = test system: 786-0
UO-31 = test system: UO-31
K562 = test system: K562
OVCAR-8 = test system: OVCAR-8
RPMI-8226 = test system: RPMI-8226
NCI-H23 = test system: NCI-H23
SN12C = test system: SN12C
SK-MEL-2 = test system: SK-MEL-2
KM12 = test system: KM12
A549 = test system: A549
DU-145 = test system: DU-145
MDA-MB-435 = test system: MDA-MB-435
SR = test system: SR
MDA-N = test system: MDA-N

Measured: GI50

CCCCc1ccc(Nc2nc(S)c3[nH]cnc3n2)cc1
inactive: A498 16.6 µM | BT-549 17.4 µM | IGROV-1 18.7 µM | NCI-H226 16.3 µM | MOLT-4 1.43 µM | 786-0 33.2 µM | UO-31 28.1 µM | K562 43.4 µM | OVCAR-8 > 10 µM | RPMI-8226 44.5 µM | NCI-H23 18.7 µM | SN12C 22.8 µM | SK-MEL-2 17 µM | KM12 11.4 µM | A549 36.8 µM | DU-145 35.5 µM | MDA-MB-435 17.1 µM

S=c1sc2c(s1)SCc1cccc(n1)CSc1sc(=S)sc1SCc1cccc(n1)CS2
inactive: A498 > 100 µM | BT-549 > 100 µM | IGROV-1 > 100 µM | NCI-H226 > 100 µM | MOLT-4 > 100 µM | 786-0 > 100 µM | UO-31 > 100 µM | K562 > 100 µM | OVCAR-8 > 100 µM | RPMI-8226 > 100 µM | NCI-H23 > 100 µM | SN12C > 100 µM | SK-MEL-2 > 100 µM | KM12 > 100 µM | A549 > 100 µM | DU-145 > 100 µM | MDA-MB-435 > 100 µM | SR > 100 µM

Cc1cccc2c1Oc1cc(Cl)ccc1C2NC(=O)CCN1CCN(CCO)CC1 (stereo not drawn)
inactive: BT-549 15.1 µM | IGROV-1 22.1 µM | MOLT-4 14.4 µM | 786-0 13.6 µM | UO-31 12.8 µM | K562 18.2 µM | MDA-N 4.25 µM | OVCAR-8 13.4 µM | NCI-H23 23.1 µM | SN12C 15 µM | KM12 3.55 µM | A549 11.5 µM | DU-145 27.2 µM | MDA-MB-435 14 µM | SR 21.8 µM

CCOC(=O)c1ccc(-c2ccc(Cl)cc2)[nH]1
inactive: BT-549 > 10 µM | IGROV-1 > 10 µM | NCI-H226 8.47 µM | MOLT-4 > 10 µM | 786-0 > 10 µM | UO-31 > 10 µM | K562 > 10 µM | MDA-N 5.45 µM | OVCAR-8 > 10 µM | NCI-H23 > 10 µM | SN12C > 10 µM | SK-MEL-2 > 10 µM | KM12 > 10 µM | A549 > 10 µM | DU-145 > 10 µM | MDA-MB-435 > 10 µM | SR > 10 µM

CCn1c(-c2ccc(F)cc2)nc2c1C(=O)c1ccccc1C2=O
inactive: BT-549 > 100 µM | IGROV-1 > 100 µM | NCI-H226 91 µM | MOLT-4 > 100 µM | 786-0 > 100 µM | K562 > 100 µM | MDA-N > 100 µM | OVCAR-8 > 100 µM | RPMI-8226 > 100 µM | NCI-H23 > 100 µM | SN12C > 100 µM | KM12 > 100 µM | A549 > 100 µM | DU-145 > 100 µM | MDA-MB-435 > 100 µM | SR > 100 µM

COc1cc(/C=C2\N=C(c3ccccc3)N(c3ccc4c(c3)Sc3cc(N5C(=O)/C(=C/c6cc(OC)c(OC)c(OC)c6)N=C5c5ccccc5)ccc3N4)C2=O)cc(OC)c1OC
inactive: A498 20.7 µM | BT-549 23.4 µM | IGROV-1 17 µM | MOLT-4 37.2 µM | 786-0 20.9 µM | UO-31 31.3 µM | K562 21 µM | MDA-N 19.8 µM | OVCAR-8 18.5 µM | RPMI-8226 27.4 µM | NCI-H23 19.3 µM | SN12C 25.9 µM | SK-MEL-2 18.5 µM | KM12 > 100 µM | A549 37.6 µM | DU-145 54.3 µM | MDA-MB-435 18 µM

CS(=O)(=O)c1ccc(NNc2cc(=O)[nH]c(=O)[nH]2)cc1
inactive: A498 > 100 µM | BT-549 > 100 µM | IGROV-1 > 100 µM | NCI-H226 > 100 µM | MOLT-4 > 100 µM | 786-0 > 100 µM | UO-31 > 100 µM | K562 > 100 µM | MDA-N > 100 µM | RPMI-8226 > 100 µM | NCI-H23 > 100 µM | SN12C > 100 µM | SK-MEL-2 > 100 µM | KM12 > 100 µM | A549 > 100 µM | DU-145 > 100 µM | SR > 100 µM

CCOC(=O)c1cc(C2(OC)CCN(Cc3ccccc3)C2=O)c(-c2cc(C)no2)[nH]1 (stereo not drawn)
inactive: A498 > 100 µM | BT-549 > 100 µM | IGROV-1 > 100 µM | MOLT-4 > 100 µM | 786-0 > 100 µM | UO-31 > 100 µM | K562 > 100 µM | MDA-N > 100 µM | OVCAR-8 > 100 µM | RPMI-8226 > 100 µM | NCI-H23 > 100 µM | SK-MEL-2 > 100 µM | KM12 > 100 µM | A549 > 100 µM | DU-145 > 100 µM | MDA-MB-435 > 100 µM

CSC1=N[C@H](c2ccccc2)CS1
inactive: A498 > 100 µM | BT-549 > 100 µM | IGROV-1 > 100 µM | MOLT-4 > 100 µM | 786-0 > 100 µM | UO-31 > 100 µM | K562 > 100 µM | MDA-N > 100 µM | RPMI-8226 > 100 µM | NCI-H23 > 100 µM | SN12C > 100 µM | SK-MEL-2 > 100 µM | KM12 > 100 µM | A549 > 100 µM | DU-145 > 100 µM | MDA-MB-435 > 100 µM

COc1ccc(-n2c(=O)c3nc[nH]c3n(-c3ccc(OC)cc3)c2=S)cc1
inactive: A498 > 100 µM | BT-549 > 100 µM | IGROV-1 > 100 µM | NCI-H226 > 100 µM | MOLT-4 > 100 µM | 786-0 > 100 µM | UO-31 > 100 µM | K562 > 100 µM | OVCAR-8 > 100 µM | RPMI-8226 > 100 µM | NCI-H23 > 100 µM | SN12C > 100 µM | SK-MEL-2 > 100 µM | KM12 > 100 µM | A549 > 100 µM | DU-145 > 100 µM | MDA-MB-435 > 100 µM | SR > 100 µM

COC(=O)CCC1=C(CC(=O)OC)C(C)(OC)N/C1=N/C(=O)OCc1ccccc1 (stereo not drawn)
inactive: A498 > 100 µM | BT-549 > 100 µM | IGROV-1 > 100 µM | NCI-H226 > 100 µM | MOLT-4 > 100 µM | 786-0 > 100 µM | UO-31 > 100 µM | K562 > 100 µM | OVCAR-8 > 100 µM | RPMI-8226 > 100 µM | NCI-H23 > 100 µM | SN12C > 100 µM | SK-MEL-2 > 100 µM | KM12 > 100 µM | A549 > 100 µM | DU-145 > 100 µM | MDA-MB-435 > 100 µM | SR > 100 µM

COc1ccc(-c2c(C#N)c(N)n(C3OC(CO)C(O)C(O)C3O)c(=S)c2C#N)cc1 (stereo not drawn)
inactive: A498 > 100 µM and 52.6 µM | BT-549 > 100 µM and 76.9 µM | IGROV-1 72.1 µM | NCI-H226 > 100 µM | MOLT-4 > 100 µM and 68.2 µM | 786-0 > 100 µM | UO-31 82.2 µM | K562 > 100 µM | MDA-N > 100 µM | OVCAR-8 > 100 µM | RPMI-8226 > 100 µM | NCI-H23 > 100 µM | SN12C > 100 µM | SK-MEL-2 55.8 µM and 30.4 µM | KM12 > 100 µM | A549 > 100 µM | DU-145 > 100 µM | SR > 100 µM

O=[N+]([O-])c1cccc(/N=N/c2c(O)ccc3ccccc23)c1
inactive: A498 > 100 µM | BT-549 43.8 µM | IGROV-1 94.8 µM | MOLT-4 85.3 µM | 786-0 69.7 µM | UO-31 > 100 µM | K562 69 µM | MDA-N 87.3 µM | OVCAR-8 > 100 µM | RPMI-8226 54.2 µM | NCI-H23 70.8 µM | SN12C > 100 µM | SK-MEL-2 50.4 µM | KM12 42.4 µM | A549 > 100 µM | DU-145 > 100 µM | MDA-MB-435 39.1 µM

Cc1ccc(C(=O)Nc2ccc(S(=O)(=O)O)c3cc(S(=O)(=O)O)cc(S(=O)(=O)O)c23)cc1NC(=O)c1cccc(N)c1
inactive: A498 > 100 µM | BT-549 > 100 µM | IGROV-1 > 100 µM | NCI-H226 > 100 µM | MOLT-4 > 100 µM | 786-0 > 100 µM | UO-31 > 100 µM | K562 > 100 µM | OVCAR-8 > 100 µM | NCI-H23 > 100 µM | SN12C > 100 µM | SK-MEL-2 73.8 µM | KM12 > 100 µM | A549 > 100 µM | SR > 100 µM

CCOC(=O)c1nc2ccccc2nc1NCc1ccc(OC)cc1
inactive: A498 32.2 µM | BT-549 > 100 µM | IGROV-1 > 100 µM | NCI-H226 > 100 µM | MOLT-4 > 100 µM | 786-0 > 100 µM | UO-31 > 100 µM | K562 > 100 µM | OVCAR-8 > 100 µM | RPMI-8226 > 100 µM | NCI-H23 > 100 µM | KM12 44.6 µM | A549 > 100 µM | DU-145 > 100 µM | MDA-MB-435 > 100 µM | SR > 100 µM

COC(=O)C(C)(C)NC(=O)C(C)(C)NC(=O)C(CC(=O)OC(C)(C)C)NC(=O)OC(C)(C)C (stereo not drawn) (Boc-[ξD](OtBu)-[Aib]-[Aib]-OMe)
inactive: A498 > 100 µM | BT-549 > 100 µM | IGROV-1 > 100 µM | NCI-H226 > 100 µM | MOLT-4 > 100 µM | 786-0 > 100 µM | UO-31 > 100 µM | K562 > 100 µM | MDA-N > 10 µM | OVCAR-8 > 100 µM | RPMI-8226 > 100 µM | NCI-H23 > 100 µM | SK-MEL-2 > 100 µM | KM12 > 100 µM | A549 > 100 µM | DU-145 > 100 µM | MDA-MB-435 > 100 µM

Reference: ChEMBL document CHEMBL1201862, “PubChem BioAssay data set” (2004)
